The values that follow come from patent US12257251B2, “Use of FAK inhibitor in preparation of drug for treating tumors having NRAS mutation” (INXMED (NANJING) CO., LTD., priority 2019, dated 2025).

The subject of this assay is human esophageal cancer cell line KYSE-270. The experiment in a line: Subcutaneous xenograft of human esophageal cancer cell line KYSE-270 in NMRI nude mice: tumor growth. The class given is in vivo, mouse. The note with it: for Tumor shrinkage [x/y]: BI853520 50 mg/Kg qd. The procedure:
1.1. Model: Subcutaneous xenograft of human esophageal cancer cell line KYSE-270 in NMRI nude mice.
1.3. Cells: KYSE-270 is an esophageal cancer cell line (Public Health England, catalog number: 94072021). Cells were cultured in T175 tissue culture flasks containing 5% CO2 at 37° C. The medium was RPMI 1640+HAM F12 (1:1) supplemented with 2% FCS and 2 mM Glutamax. Passage was performed three times a week at a ratio of 1:2.
1.4. Mice: Mice were 8 to 10 week old female mice (BomTac: NMRI-Foxn1^nu) purchased from Taconic®, Denmark. Upon arrival in the animal room, the mice were allowed to acclimate for at least 5 days before being used for assay. The animals were housed under standard conditions (temperature: 21.5±1.5° C., humidity: 55+10%), 7 to 10 mice for each group. A standard diet and autoclaved tap water were provided for ad libitum feeding. A subcutaneous microchip implanted under isoflurane anesthesia was used to identify each mouse.
1.5. Random establishment of tumors: To establish subcutaneous tumors, KYSE-270 cells were harvested by centrifugation, washed and resuspended in PBS+5% FCS at a concentration of 5×10^7 cells/ml. Then 100 l of cell suspension containing 5×10^6 cells was injected subcutaneously into the right flank of mice (1 site per mouse). When tumors were well established and reached a volume of 94 to 252 mm^3, mice were randomly assigned to the treatment group and the control group (13 days after cell injection).
1.6. Administration: BI 853520 was suspended in 0.5% hydroxyethyl cellulose, which was administered intragastrically through gavage needle every day, and the dosage was 10 mL/Kg body weight. Paclitaxel was dissolved in saline (0.9% NaCl), which was administered intravenously in a volume of 10 ml/kg body weight. The suspension of BI853520 could be used for up to 7 days. Paclitaxel solution was stored at 6° C. and used for up to 14 days.
1.7. Monitoring tumor growth and side effects: Tumor diameters were measured with calipers three times a week. The volume [mm^3] of each tumor was calculated according to the equation “tumor volume=length×diameter^2×π/6”. To monitor the side effects of the treatment, the mice were checked daily for abnormalities and their body weights were measured three times a week. For ethical reasons, animals with tumors larger than 1.5 cm in diameter, ulcerated tumors, or 20% body weight loss were euthanized.
Statistical assessment of tumor volume and body weight on day 13 was performed. Animal number 1 (control group) was excluded from the statistical evaluation because of weight loss and had to be euthanized early (day 9). Measured tumor volume was used as the target variable in the statistical analysis. The number of animals and the median, minimum and maximum tumor volumes in each group were calculated. For a quick overview of possible treatment effects, the median tumor volume for each treatment group T and the median tumor volume for the control group C were used to calculate TGI: TGI=100×[(Cd−C1)−(Td−T1)]/(Cd−C1) • wherein, C1, T1=median tumor volume in control and treatment groups at the start of the assay (day 1). • Cd, Td=median tumor volume in control and treatment groups at the end of the assay (day 13).
The wilcoxon test was used for comparison. For body weight, the percent change relative to initial body weight on day 1 was used as the target variable for statistical analysis. The number of animals, and the median, minimum and maximum weight changes in each group were calculated.
One-sided test to compare all treatment groups with control group was performed for observing: • reduction in tumor volume (inhibition of tumor growth, efficacy parameter) and • reduction in weight changes (weight loss, tolerance parameters).
Within each subtopic, p-values for the efficacy parameter were compared and adjusted for multiple times according to Bonferroni-Holm. The p-value for the tolerance parameter was kept constant so as not to overlook possible side effects. […]

Turning to `COc1cc(C(=O)NC2CCN(C)CC2)c(F)cc1Nc1ncc(C(F)(F)F)c(Oc2cccc3c2C(=O)N(C)C3)n1` [BI853520], for the setting “BI853520 50 mg/Kg qd p.o., day 13”, the TGI is 106%. Also, the “Tumor shrinkage [x/y]” value runs as follows: (day 13, 50 mg/kg) 6/7; (day 13, listed as BI 853520, 50 mg/kg) 6 of 7. In addition, the “Inhibition of tumor growth (in words)” value (BI 853520 50 mg/kg) was “statistically significant inhibition of tumor growth”. This compound gave a Median tumor volume (BI 853520 50 mg/kg per day, day 13 (start 175 mm^3)) of 126 mm^3.
